In patent US7612084B2, “Amine derivatives for the treatment of asthma and COPD” (Pfizer Inc, priority 2006, dated 2009):
Counter-ions that a name gives are not always drawn.

How the values were obtained:
[1] = target: human adrenergic B2 receptor (Homo sapiens, UniProt P07550); assay: Whole cell luciferase reporter assay in CHO cells expressing the hB2 receptor (agonist potency); type: cell-based; conditions: 4 h incubation, read-out: EC50 - beta2
Description: Functional Assessment of Agonist Potency and Efficacy Using a Whole Cell Luciferase Reporter Assay in CHO Cells Expressing the hB2 Receptor.
CHO (Chinese Hamster Ovary) cells recombinantly expressing the human adrenergic B2 receptor and transfected with a luciferase enzyme reporter gene were maintained in growth media composed of F12:DMEM (Sigma D6421) containing 10% Foetal Bovine Serum (FBS: Sigma F03921) 10 μg/ml puromycin (Sigma N277698), 0.5 mg/ml Geneticin G418 (Sigma G7034) and 2 mM L-glutamine (Sigma G7513). The cells were kept in sterile conditions at 37° C., in an atmosphere containing 5% CO2.
hB2 Luciferase Assay Protocol
Cells were harvested for assay when they reached 80-90% confluency using enzyme free cell Dissociation Solution (Life technologies 13151-014) incubated with the cells for 5 min at 37° C. in an atmosphere containing 5% CO2. Detached cells were collected in warmed growth media (composition described above), and re-suspended in assay media (F12:DMEM (Sigma D6421) containing 1% Foetal Bovine Serum (FBS: Sigma F03921), 10 μg/ml puromycin (Sigma N277698), 0.5 mg/ml Geneticin G418 (Sigma G7034) and 2 mM L-glutamine (Sigma G7513))to give a viable cell concentration of 1×10^6 cells/ml. 10 ul of this suspension was added to each well of a tissue culture treated low volume 384 well plate (Greiner788073) and the plate incubated in an atmosphere containing 5% CO2 at 37° C. for 2 h. Concentration ranges of test compounds were prepared in phosphate Buffered Saline containing 0.05% pluronic-F127 (Sigma P2443) and 2.5% DMSO. 2 μl of each test concentration were added to the appropriate 384 plate well and returned to the incubator for a further 4 h. At the end of the incubation period 4 μl of Steady-Glo reagent (Steady-Glo Luciferase assay system (Promega E2520) was added to each well and the plate read immediately in a Leadseeker Plate reader (Amersham Bioscience) using a 660 nm filter. Concentration effect curves were plotted and EC50 values generated using a 4-parameter sigmoid fit using an in-house data analysis programme. Isoprenaline was run in every assay as a reference standard.

[2] = target: human muscarinic M3 receptor (Homo sapiens, UniProt P20309); assay: Whole cell β-lactamase reporter assay in CHO cells expressing the hM3 receptor (antagonist activity); type: cell-based; conditions: 80 nM carbamyl choline, IC50 converted to Ki by Cheng-Prusoff
Sequence of human muscarinic M3 receptor (P20309 whole entry): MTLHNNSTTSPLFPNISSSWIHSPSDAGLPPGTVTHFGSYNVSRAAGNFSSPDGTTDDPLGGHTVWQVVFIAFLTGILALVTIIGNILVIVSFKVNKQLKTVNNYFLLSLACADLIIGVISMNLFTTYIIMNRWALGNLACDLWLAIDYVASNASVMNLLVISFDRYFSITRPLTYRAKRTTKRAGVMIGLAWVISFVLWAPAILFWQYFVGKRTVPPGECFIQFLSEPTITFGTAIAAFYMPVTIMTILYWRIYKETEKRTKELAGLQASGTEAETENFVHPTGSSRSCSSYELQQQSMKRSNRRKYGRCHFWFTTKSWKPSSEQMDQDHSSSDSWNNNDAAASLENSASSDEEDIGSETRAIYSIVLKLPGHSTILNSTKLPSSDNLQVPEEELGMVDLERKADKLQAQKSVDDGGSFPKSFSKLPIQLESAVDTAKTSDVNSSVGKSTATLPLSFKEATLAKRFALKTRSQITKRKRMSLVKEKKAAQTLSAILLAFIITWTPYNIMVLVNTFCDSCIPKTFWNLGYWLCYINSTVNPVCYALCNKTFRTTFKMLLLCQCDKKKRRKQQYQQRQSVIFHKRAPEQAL
Description: Functional Assessment of Antagonist Activity Using a Whole Cell β-Lactamase Reporter Assay in CHO Cells Expressing the hM3 Receptor.
CHO (Chinese Hamster Ovary) cells recombinantly expressing the human muscarinic M3 receptor were transfected with the NFAT_β-Lac_Zeo plasmid. Cells were grown in DMEM with Glutamax-1, supplemented with 25 mM HEPES(Life Technologies 32430-027), containing 10% FCS (Foetal Calf Serum; Sigma F-7524), […] Sodium pyruvate (Sigma S-8636), NEAA (non-Essential Amino Acids; Invitrogen 11140-035) and […] Zeocin (Invitrogen R250-01).
Cells were harvested for assay when they reached 80-90% confluency using enzyme free cell Dissociation Solution (Life technologies 13151-014) incubated with the cells for 5 min at 37° C. in an atmosphere containing 5% CO2. Detached cells were collected in warmed growth media and centrifuged at 200 rpm for 10 min, washed in PBS (Phosphate Buffered Saline; Life Technologies 14190-094) and centrifuged again as just described. The cells were re-suspended at 2×10^5 cells/ml in growth medium (composition as described above). 20 μl of this cell suspension was added to each well of a 384 well black clear bottomed plate (Greiner Bio One 781091-PFI). The assay buffer used was PBS supplemented with 0.05% Pluronic F-127 (Sigma 9003-11-6) and 2.5% DMSO. Muscarinic M3 receptor signalling was stimulated using 80 nM carbamyl choline (Aldrich N240-9) incubated with the cells for 4 h at 37° C./5% CO2 and monitored at the end of the incubation period using a Tecan SpectraFluor+plate reader (λ−excitation 405 nm, emission 450 nm and 503 nm). Compounds under test were added to the assay at the beginning of the 4 h incubation period and compound activity measured as the concentration dependent inhibition of the carbamyl choline induced signal. Inhibition curves were plotted and IC50 values generated using a 4-parameter sigmoid fit and converted to Ki values using the Cheng-Prusoff correction and the KD value for carbamyl choline in the assay.

Sequence of human adrenergic B2 receptor (P07550 whole entry): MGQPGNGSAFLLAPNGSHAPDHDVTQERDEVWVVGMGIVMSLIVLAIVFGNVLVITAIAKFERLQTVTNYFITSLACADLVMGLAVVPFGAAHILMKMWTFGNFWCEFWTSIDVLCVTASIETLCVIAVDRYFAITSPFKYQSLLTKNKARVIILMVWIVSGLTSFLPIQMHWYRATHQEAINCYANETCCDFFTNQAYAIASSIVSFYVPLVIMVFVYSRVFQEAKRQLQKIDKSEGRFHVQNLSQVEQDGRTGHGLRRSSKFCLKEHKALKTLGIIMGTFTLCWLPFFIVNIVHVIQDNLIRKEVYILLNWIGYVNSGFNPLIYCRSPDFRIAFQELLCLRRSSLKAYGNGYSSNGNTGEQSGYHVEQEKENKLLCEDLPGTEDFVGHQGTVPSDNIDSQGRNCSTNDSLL

Row | Compound | EC50 [1] [nM] | Ki [2] [nM]
1 | CC(C)N(CC[C@H](c1ccccc1)c1cc(CCCCCCCCCCNC[C@H](O)c2ccc(O)c(NS(C)(=O)=O)c2)ccc1O)C(C)C [Example 1, N-(5-{(1R)-2-[(10-{3-[(1R)-3-(diisopropylamino)-1-phenylpropyl]-4-hydroxyphenyl}decyl)amino]-1-hydroxyethyl}-2-hydroxyphenyl)methanesulfonamide] | 0.88 | 3.4
2 | CC(C)N(CC[C@H](c1ccccc1)c1cc(CCCCOc2ccc(CCNC[C@H](O)c3ccc(O)c4[nH]c(=O)ccc34)cc2)ccc1O)C(C)C [Example 8, 5-[(1R)-2-({2-[4-(4-{3-[(1R)-3-(diisopropylamino)-1-phenylpropyl]-4-hydroxyphenyl}butoxy)phenyl]ethyl}amino)-1-hydroxyethyl]-8-hydroxyquinolin-2(1H)-one] | 0.035 | –
3 | CC(C)N(CC[C@H](c1ccccc1)c1cc(CCCCOc2ccc(CCNC[C@H](O)c3ccc(O)c(NS(C)(=O)=O)c3)cc2)ccc1O)C(C)C [Example 3, N-{5-[(1R)-2-({2-[4-(4-{3-[(1R)-3-(Diisopropylamino)-1-phenylpropyl]-4-hydroxyphenyl}butoxy)phenyl]ethyl}amino)-1-hydroxyethyl]-2-hydroxyphenyl}methanesulfonamide] | 0.14 | 1.4
4 | CC(C)N(CC[C@H](c1ccccc1)c1cc(CCCCOCCCCCCNC[C@H](O)c2ccc(O)c(NS(C)(=O)=O)c2)ccc1O)C(C)C [Example 6, N-{5-[(1R)-2-{[6-(4-{3-[(1R)-3-(Diisopropylamino)-1-phenylpropyl]-4-hydroxyphenyl}butoxy)hexyl]amino}-1-hydroxyethyl]-2-hydroxyphenyl}methanesulfonamide] | 0.19 | 2.4
5 | CC(C)N(CC[C@H](c1ccccc1)c1cc(CCCOc2ccc(CCNC[C@H](O)c3ccc(O)c(NS(C)(=O)=O)c3)cc2)ccc1O)C(C)C [Example 2, N-{5-[(1R)-2-({2-[4-(3-{3-[(1R)-3-(diisopropylamino)-1-phenylpropyl]-4-hydroxyphenyl}propoxy)phenyl]ethyl}amino)-1-hydroxyethyl]-2-hydroxyphenyl}methanesulfonamide] | 0.32 | 1.1
6 | CC(C)N(CC[C@H](c1ccccc1)c1cc(OCCCCCCCNC[C@H](O)c2ccc(O)c(NS(C)(=O)=O)c2)ccc1O)C(C)C [Example 4, N-(5-{(1R)-2-[(7-{3-[(1R)-3-(diisopropylamino)-1-phenylpropyl]-4-hydroxyphenoxy}heptyl)amino]-1-hydroxyethyl}-2-hydroxyphenyl)methanesulfonamide] | 1.3 | 0.28
7 | CC(C)N(CC[C@H](c1ccccc1)c1cc(CCCCOc2ccc(CCNC[C@H](O)c3cc(O)cc(O)c3)cc2)ccc1O)C(C)C [Example 9] | 4.8 | 1.1
8 | CC(C)N(CC[C@H](c1ccccc1)c1cc(CCCCOc2ccc(CCNC[C@H](O)c3ccc(O)c(NC=O)c3)cc2)ccc1O)C(C)C [Example 7, N-{5-[(1R)-2-({2-[4-(4-{3-[(1R)-3-(diisopropylamino)-1-phenylpropyl]-4-hydroxyphenyl}butoxy)phenyl]ethyl}amino)-1-hydroxyethyl]-2-hydroxyphenyl}formamide] | 0.049 | 2.1

Further lines, results first:

Row | EC50 [1] [nM] | Ki [2] [nM] | Compound
9 | 13.8 | 0.26 | CC(C)N(CC[C@H](c1ccccc1)c1cc(CCOc2ccc(CCNC[C@H](O)c3cc(O)cc(O)c3)cc2)ccc1O)C(C)C [Example 12, 5-[(1R)-2-({2-[4-(2-{3-[(1R)-3-(diisopropylamino)-1-phenylpropyl]-4-hydroxyphenyl}ethoxy)phenyl]ethyl}amino)-1-hydroxyethyl]benzene-1,3-diol]
10 | 0.25 | 0.06 | CC(C)N(CC[C@H](c1ccccc1)c1cc(CCOc2ccc(CCNC[C@H](O)c3ccc(O)c(CO)c3)cc2)ccc1O)C(C)C [Example 15, 2-[(1R)-3-(diisopropylamino)-1-phenylpropyl]-4-(2-{4-[2-({(2R)-2-hydroxy-2-[4-hydroxy-3-(hydroxymethyl)phenyl]ethyl}amino)ethyl]phenoxy}ethyl)phenol]
11 | 0.028 | 0.39 | CC(C)N(CC[C@H](c1ccccc1)c1cc(CCOc2ccc(CC(C)(C)NC[C@H](O)c3ccc(O)c4[nH]c(=O)ccc34)cc2)ccc1O)C(C)C [Example 20, 5-[(1R)-2-({2-[4-(2-{3-[(1R)-3-(diisopropylamino)-1-phenylpropyl]-4-hydroxyphenyl}ethoxy)phenyl]-11-dimethylethyl}amino)-1-hydroxyethyl]-8-hydroxyquinolin-2(1H)-one]
12 | 1.3 | 2 | CC(C)N(CC[C@H](c1ccccc1)c1cc(CCCCCCCCNC[C@H](O)c2ccc(O)c(NS(C)(=O)=O)c2)ccc1O)C(C)C [Example 16, N-(5-{(1R)-2-[(8-{3-[(1R)-3-(diisopropylamino)-1-phenylpropyl]-4-hydroxyphenyl}octyl)amino]-1-hydroxyethyl}-2-hydroxyphenyl)methanesulfonamide]
13 | 0.22 | – | CC(C)N(CC[C@H](c1ccccc1)c1cc(CCCCOc2ccc(CCNC[C@H](O)c3ccc(O)c(CO)c3)cc2)ccc1O)C(C)C [Example 18, 2-[(1R)-3-(diisopropylamino)-1-phenylpropyl]-4-(4-{4-[2-({(2R)-2-hydroxy-2-[4-hydroxy-3-(hydroxymethyl)phenyl]ethyl}amino)ethyl]phenoxy}butyl)phenol]
14 | 0.57 | 3 | CC(C)N(CC[C@H](c1ccccc1)c1cc(CCCCCOc2ccc(CCNC[C@H](O)c3ccc(O)c(NS(C)(=O)=O)c3)cc2)ccc1O)C(C)C [Example 17, N-(5-{(1R)-2-[(2-{4-[(5-{3-[(1R)-3-(diisopropylamino)-1-phenylpropyl]-4-hydroxyphenyl}pentyl)oxy]phenyl}ethyl)amino]-1-hydroxyethyl}-2-hydroxyphenyl)methanesulfonamide]
15 | 0.2 | 0.3 | CC(C)N(CC[C@H](c1ccccc1)c1cc(CCOc2ccc(CCNC[C@H](O)c3ccc(O)c(NS(C)(=O)=O)c3)cc2)ccc1O)C(C)C [Example 19, N-{5-[(1R)-2-({2-[4-(2-{3-[(1R)-3-(diisopropylamino)-1-phenylpropyl]-4-hydroxyphenyl}ethoxy)phenyl]ethyl}amino)-1-hydroxyethyl]-2-hydroxyphenyl}methanesulfonamide succinate salt]
16 | 0.078 | 0.38 | CC(C)N(CC[C@H](c1ccccc1)c1cc(CCOc2ccc(CCNC[C@H](O)c3ccc(O)c(NC=O)c3)cc2)ccc1O)C(C)C [Example 13, N-{5-[(1R)-2-({2-[4-(2-{3-[(1R)-3-(diisopropylamino)-1-phenylpropyl]-4-hydroxyphenyl}ethoxy)phenyl]ethyl}amino)-1-hydroxyethyl]-2-hydroxyphenyl}formamide]
17 | 0.054 | 0.76 | CC(C)N(CC[C@H](c1ccccc1)c1cc(CCOc2ccc(CCNC[C@H](O)c3ccc(O)c4[nH]c(=O)ccc34)cc2)ccc1O)C(C)C [Example 14, 5-[(1R)-2-({2-[4-(2-{3-[(1R)-3-(diisopropylamino)-1-phenylpropyl]-4-hydroxyphenyl}ethoxy)phenyl]ethyl}amino)-1-hydroxyethyl]-8-hydroxyquinolin-2(1H)-one]
